Test results taken from ChEMBL document CHEMBL5154882, “Discovery of 4-Hydroxyquinazoline Derivatives as Small Molecular BET/PARP1 Inhibitors That Induce Defective Homologous Recombination and Lead to Synthetic Lethality for Triple-Negative Breast Cancer Therapy” (J Med Chem, 2022).
pIC50: −log10 of the molar value. Activity calls are given as the source filed them. The calls are words filed in the database; no cut-off is given here.

Each molecule was assayed on MDA-MB-231 (assay: Antiproliferative activity against human MDA-MB-231 cells assessed as reduction in cell viability incubated for 72 hrs by MTT assay). Details: MDA-MB-231, 72 h.
Type: functional, cell-based

Structure (SMILES)	pIC50
COc1ccc2nc(-c3cc(F)cc(Cc4n[nH]c(=O)c5ccccc45)c3)[nH]c(=O)c2c1	4.81
Cc1cccc2nc(-c3cc(F)cc(Cc4n[nH]c(=O)c5ccccc45)c3)[nH]c(=O)c12	4.81
COc1cc(-c2nc3ccc(Cl)cc3c(=O)[nH]2)ccc1Cc1n[nH]c(=O)c2ccccc12	4.51
COc1cc(OC)c2c(=O)[nH]c(-c3ccc(Cc4n[nH]c(=O)c5ccccc45)cc3)nc2c1	4.77
COc1cc(OC)c2c(=O)[nH]c(-c3ccc(Cc4n[nH]c(=O)c5ccccc45)c(OC)c3)nc2c1	4.56
COc1cc(OC)c2c(=O)[nH]c(-c3cc(F)cc(Cc4n[nH]c(=O)c5ccccc45)c3)nc2c1	5.01
COc1ccc2nc(-c3cc(Cc4n[nH]c(=O)c5ccccc45)ccc3F)[nH]c(=O)c2c1	4.64
COc1ccc2nc(-c3ccc(Cc4n[nH]c(=O)c5ccccc45)c(F)c3)[nH]c(=O)c2c1	4.60
COc1cc(-c2nc3cccc(C)c3c(=O)[nH]2)ccc1Cc1n[nH]c(=O)c2ccccc12	< 4.40
COc1cc(OC)c2c(=O)[nH]c(-c3ccc(Cc4n[nH]c(=O)c5ccccc45)c(F)c3)nc2c1	4.55
COc1cc(OC)c2c(=O)[nH]c(-c3cccc(Cc4n[nH]c(=O)c5ccc(Cl)cc45)c3)nc2c1	4.81

Continued, values first:

pIC50	Structure (SMILES)
4.72	COc1ccc2nc(-c3ccc(Cc4n[nH]c(=O)c5ccccc45)cc3)[nH]c(=O)c2c1
4.63	O=c1[nH]nc(Cc2ccc(F)c(-c3nc4cccc(Cl)c4c(=O)[nH]3)c2)c2ccccc12
4.67	O=c1[nH]c(-c2cccc(Cc3n[nH]c(=O)c4ccccc34)c2)nc2ccccc12
< 4.40	Cc1cc(-c2nc3cccc(C)c3c(=O)[nH]2)ccc1Cc1n[nH]c(=O)c2ccccc12
4.50	O=c1[nH]c(-c2cc(Cc3n[nH]c(=O)c4ccccc34)ccc2F)nc2ccccc12
4.50	O=c1[nH]c(-c2ccc(Cc3n[nH]c(=O)c4ccccc34)c(F)c2)nc2ccccc12
< 4.40	Cc1cccc2nc(-c3ccc(Cc4n[nH]c(=O)c5ccccc45)c(F)c3)[nH]c(=O)c12
4.77	O=c1[nH]c(-c2ccc(Cc3n[nH]c(=O)c4ccccc34)cc2)nc2ccc(Cl)cc12
5.04	O=c1[nH]c(-c2cccc(Cc3n[nH]c(=O)c4ccccc34)c2)nc2ccc(F)cc12
4.54	Cc1cccc2nc(-c3ccc(Cc4n[nH]c(=O)c5ccccc45)cc3)[nH]c(=O)c12
4.82	O=c1[nH]c(-c2cc(F)cc(Cc3n[nH]c(=O)c4ccccc34)c2)nc2ccc(Cl)cc12
5.06	COc1ccc2nc(-c3cccc(Cc4n[nH]c(=O)c5ccccc45)c3)[nH]c(=O)c2c1

These molecules were tested on MDA-MB-468 (assay: Antiproliferative activity against human MDA-MB-468 cells assessed as reduction in cell viability incubated for 72 hrs by MTT assay). Details: MDA-MB-468, 72 h.
Type: functional, cell-based

Structure (SMILES)	pIC50
COc1ccc2nc(-c3cc(F)cc(Cc4n[nH]c(=O)c5ccccc45)c3)[nH]c(=O)c2c1	4.91
Cc1cccc2nc(-c3cc(F)cc(Cc4n[nH]c(=O)c5ccccc45)c3)[nH]c(=O)c12	4.81
COc1cc(-c2nc3ccc(Cl)cc3c(=O)[nH]2)ccc1Cc1n[nH]c(=O)c2ccccc12	4.45
COc1cc(OC)c2c(=O)[nH]c(-c3ccc(Cc4n[nH]c(=O)c5ccccc45)cc3)nc2c1	4.85
COc1cc(OC)c2c(=O)[nH]c(-c3ccc(Cc4n[nH]c(=O)c5ccccc45)c(OC)c3)nc2c1	4.60
COc1cc(OC)c2c(=O)[nH]c(-c3cc(F)cc(Cc4n[nH]c(=O)c5ccccc45)c3)nc2c1	5.13
COc1ccc2nc(-c3cc(Cc4n[nH]c(=O)c5ccccc45)ccc3F)[nH]c(=O)c2c1	4.62
COc1ccc2nc(-c3ccc(Cc4n[nH]c(=O)c5ccccc45)c(F)c3)[nH]c(=O)c2c1	4.71
COc1cc(-c2nc3cccc(C)c3c(=O)[nH]2)ccc1Cc1n[nH]c(=O)c2ccccc12	< 4.40
COc1cc(OC)c2c(=O)[nH]c(-c3ccc(Cc4n[nH]c(=O)c5ccccc45)c(F)c3)nc2c1	4.59
COc1cc(OC)c2c(=O)[nH]c(-c3cccc(Cc4n[nH]c(=O)c5ccc(Cl)cc45)c3)nc2c1	4.89

The next lines start with the values.

pIC50	Structure (SMILES)
4.80	COc1ccc2nc(-c3ccc(Cc4n[nH]c(=O)c5ccccc45)cc3)[nH]c(=O)c2c1
4.66	O=c1[nH]nc(Cc2ccc(F)c(-c3nc4cccc(Cl)c4c(=O)[nH]3)c2)c2ccccc12
4.79	O=c1[nH]c(-c2cccc(Cc3n[nH]c(=O)c4ccccc34)c2)nc2ccccc12
4.53	Cc1cc(-c2nc3cccc(C)c3c(=O)[nH]2)ccc1Cc1n[nH]c(=O)c2ccccc12
4.53	O=c1[nH]c(-c2cc(Cc3n[nH]c(=O)c4ccccc34)ccc2F)nc2ccccc12
4.53	O=c1[nH]c(-c2ccc(Cc3n[nH]c(=O)c4ccccc34)c(F)c2)nc2ccccc12
< 4.40	Cc1cccc2nc(-c3ccc(Cc4n[nH]c(=O)c5ccccc45)c(F)c3)[nH]c(=O)c12
4.77	O=c1[nH]c(-c2ccc(Cc3n[nH]c(=O)c4ccccc34)cc2)nc2ccc(Cl)cc12
5.20	O=c1[nH]c(-c2cccc(Cc3n[nH]c(=O)c4ccccc34)c2)nc2ccc(F)cc12
4.62	Cc1cccc2nc(-c3ccc(Cc4n[nH]c(=O)c5ccccc45)cc3)[nH]c(=O)c12
4.91	O=c1[nH]c(-c2cc(F)cc(Cc3n[nH]c(=O)c4ccccc34)c2)nc2ccc(Cl)cc12
5.27	COc1ccc2nc(-c3cccc(Cc4n[nH]c(=O)c5ccccc45)c3)[nH]c(=O)c2c1

Each molecule was assayed on MDA-MB-468 (assay: Induction of DNA damage in human MDA-MB-468 cells assessed as up-regulation of gammaH2AX expression level at 3 uM by DAPI staining based immunofluorescence assay). Details: not given.
Type: functional, cell-based

Structure (SMILES)	Activity
O=C(c1cc(Cc2n[nH]c(=O)c3ccccc23)ccc1F)N1CCN(C(=O)C2CC2)CC1	Active

These molecules were tested on MDA-MB-231 (assay: Induction of DNA damage in human MDA-MB-231 cells assessed as increase in tail DNA measured at 3 uM after 3 days by comet assay). Details: time 3.0 day.
Type: functional, cell-based

Structure (SMILES)	Activity
O=C(c1cc(Cc2n[nH]c(=O)c3ccccc23)ccc1F)N1CCN(C(=O)C2CC2)CC1	Active

The molecules below were run against Bromodomain-containing protein 4 (Homo sapiens, UniProt O60885) (assay: Inhibition of BRD4 (unknown origin) at 1 uM relative to control). Details: not given.

Structure (SMILES)	inhibition [%]
COc1ccc2nc(-c3cc(F)cc(Cc4n[nH]c(=O)c5ccccc45)c3)[nH]c(=O)c2c1	51.3
Cc1cccc2nc(-c3cc(F)cc(Cc4n[nH]c(=O)c5ccccc45)c3)[nH]c(=O)c12	47.8
COc1cc(-c2nc3ccc(Cl)cc3c(=O)[nH]2)ccc1Cc1n[nH]c(=O)c2ccccc12	45.8
COc1cc(OC)c2c(=O)[nH]c(-c3ccc(Cc4n[nH]c(=O)c5ccccc45)cc3)nc2c1	58.2
COc1cc(OC)c2c(=O)[nH]c(-c3ccc(Cc4n[nH]c(=O)c5ccccc45)c(OC)c3)nc2c1	51
COc1cc(OC)c2c(=O)[nH]c(-c3cc(F)cc(Cc4n[nH]c(=O)c5ccccc45)c3)nc2c1	63.4
COc1ccc2nc(-c3cc(Cc4n[nH]c(=O)c5ccccc45)ccc3F)[nH]c(=O)c2c1	41
COc1ccc2nc(-c3ccc(Cc4n[nH]c(=O)c5ccccc45)c(F)c3)[nH]c(=O)c2c1	51.5
COc1cc(-c2nc3cccc(C)c3c(=O)[nH]2)ccc1Cc1n[nH]c(=O)c2ccccc12	34.4
COc1cc(OC)c2c(=O)[nH]c(-c3ccc(Cc4n[nH]c(=O)c5ccccc45)c(F)c3)nc2c1	63.5
COc1cc(OC)c2c(=O)[nH]c(-c3cccc(Cc4n[nH]c(=O)c5ccc(Cl)cc45)c3)nc2c1	72.2

The remaining lines, values ahead:

inhibition [%]	Structure (SMILES)
45.5	COc1ccc2nc(-c3ccc(Cc4n[nH]c(=O)c5ccccc45)cc3)[nH]c(=O)c2c1
40.9	O=c1[nH]nc(Cc2ccc(F)c(-c3nc4cccc(Cl)c4c(=O)[nH]3)c2)c2ccccc12
47.2	O=c1[nH]c(-c2cccc(Cc3n[nH]c(=O)c4ccccc34)c2)nc2ccccc12
36.8	Cc1cc(-c2nc3cccc(C)c3c(=O)[nH]2)ccc1Cc1n[nH]c(=O)c2ccccc12
31.6	O=c1[nH]c(-c2cc(Cc3n[nH]c(=O)c4ccccc34)ccc2F)nc2ccccc12
35.1	O=c1[nH]c(-c2ccc(Cc3n[nH]c(=O)c4ccccc34)c(F)c2)nc2ccccc12
38.2	Cc1cccc2nc(-c3ccc(Cc4n[nH]c(=O)c5ccccc45)c(F)c3)[nH]c(=O)c12
49.3	O=c1[nH]c(-c2ccc(Cc3n[nH]c(=O)c4ccccc34)cc2)nc2ccc(Cl)cc12
64.8	O=c1[nH]c(-c2cccc(Cc3n[nH]c(=O)c4ccccc34)c2)nc2ccc(F)cc12
31.7	Cc1cccc2nc(-c3ccc(Cc4n[nH]c(=O)c5ccccc45)cc3)[nH]c(=O)c12
54.5	O=c1[nH]c(-c2cc(F)cc(Cc3n[nH]c(=O)c4ccccc34)c2)nc2ccc(Cl)cc12
61.2	COc1ccc2nc(-c3cccc(Cc4n[nH]c(=O)c5ccccc45)c3)[nH]c(=O)c2c1

The molecules below were run against Poly [ADP-ribose] polymerase 1 (Homo sapiens, UniProt P09874) (assay: Inhibition of PARP1 (unknown origin) at 1 uM relative to control). Details: not given.
Poly [ADP-ribose] polymerase 1, sequence (P09874 whole entry): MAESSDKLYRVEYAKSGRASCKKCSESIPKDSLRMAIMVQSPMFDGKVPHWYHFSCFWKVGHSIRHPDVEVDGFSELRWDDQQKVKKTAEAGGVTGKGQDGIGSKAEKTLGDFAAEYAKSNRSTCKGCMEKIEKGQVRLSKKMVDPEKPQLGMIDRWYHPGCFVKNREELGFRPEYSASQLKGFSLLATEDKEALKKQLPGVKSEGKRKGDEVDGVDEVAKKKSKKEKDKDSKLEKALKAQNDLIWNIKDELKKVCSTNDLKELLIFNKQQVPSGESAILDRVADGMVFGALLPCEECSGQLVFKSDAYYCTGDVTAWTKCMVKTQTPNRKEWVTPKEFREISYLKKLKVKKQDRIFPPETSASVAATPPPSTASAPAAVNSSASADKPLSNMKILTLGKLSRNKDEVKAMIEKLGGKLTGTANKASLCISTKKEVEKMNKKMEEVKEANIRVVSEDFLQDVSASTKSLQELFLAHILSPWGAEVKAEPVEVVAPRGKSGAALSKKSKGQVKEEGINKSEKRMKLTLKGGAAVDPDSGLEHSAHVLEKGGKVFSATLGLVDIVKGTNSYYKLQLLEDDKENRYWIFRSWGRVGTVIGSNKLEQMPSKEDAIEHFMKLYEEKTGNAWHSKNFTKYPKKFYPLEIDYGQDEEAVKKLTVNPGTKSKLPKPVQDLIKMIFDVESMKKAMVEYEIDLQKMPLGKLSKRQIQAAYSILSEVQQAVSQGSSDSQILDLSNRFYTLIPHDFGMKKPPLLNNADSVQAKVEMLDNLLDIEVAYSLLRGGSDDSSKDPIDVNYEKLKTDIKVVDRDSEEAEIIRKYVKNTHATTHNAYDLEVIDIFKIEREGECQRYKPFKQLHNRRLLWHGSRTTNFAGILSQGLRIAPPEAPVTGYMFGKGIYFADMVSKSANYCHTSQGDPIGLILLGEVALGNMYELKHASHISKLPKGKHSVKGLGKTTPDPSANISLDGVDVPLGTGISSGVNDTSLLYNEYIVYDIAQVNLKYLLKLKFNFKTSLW

Structure (SMILES)	inhibition [%]
COc1ccc2nc(-c3cc(F)cc(Cc4n[nH]c(=O)c5ccccc45)c3)[nH]c(=O)c2c1	72.1
Cc1cccc2nc(-c3cc(F)cc(Cc4n[nH]c(=O)c5ccccc45)c3)[nH]c(=O)c12	76.4
COc1cc(-c2nc3ccc(Cl)cc3c(=O)[nH]2)ccc1Cc1n[nH]c(=O)c2ccccc12	37.1
COc1cc(OC)c2c(=O)[nH]c(-c3ccc(Cc4n[nH]c(=O)c5ccccc45)cc3)nc2c1	59.2
COc1cc(OC)c2c(=O)[nH]c(-c3ccc(Cc4n[nH]c(=O)c5ccccc45)c(OC)c3)nc2c1	35.3
COc1cc(OC)c2c(=O)[nH]c(-c3cc(F)cc(Cc4n[nH]c(=O)c5ccccc45)c3)nc2c1	82.8
COc1ccc2nc(-c3cc(Cc4n[nH]c(=O)c5ccccc45)ccc3F)[nH]c(=O)c2c1	70.7
COc1ccc2nc(-c3ccc(Cc4n[nH]c(=O)c5ccccc45)c(F)c3)[nH]c(=O)c2c1	39.4
COc1cc(-c2nc3cccc(C)c3c(=O)[nH]2)ccc1Cc1n[nH]c(=O)c2ccccc12	37.2
COc1cc(OC)c2c(=O)[nH]c(-c3ccc(Cc4n[nH]c(=O)c5ccccc45)c(F)c3)nc2c1	35.9
COc1cc(OC)c2c(=O)[nH]c(-c3cccc(Cc4n[nH]c(=O)c5ccc(Cl)cc45)c3)nc2c1	43.2

More lines, now with the values ahead:

inhibition [%]	Structure (SMILES)
57.4	COc1ccc2nc(-c3ccc(Cc4n[nH]c(=O)c5ccccc45)cc3)[nH]c(=O)c2c1
72.8	O=c1[nH]nc(Cc2ccc(F)c(-c3nc4cccc(Cl)c4c(=O)[nH]3)c2)c2ccccc12
82.4	O=c1[nH]c(-c2cccc(Cc3n[nH]c(=O)c4ccccc34)c2)nc2ccccc12
47.6	Cc1cc(-c2nc3cccc(C)c3c(=O)[nH]2)ccc1Cc1n[nH]c(=O)c2ccccc12
59.6	O=c1[nH]c(-c2cc(Cc3n[nH]c(=O)c4ccccc34)ccc2F)nc2ccccc12
47.2	O=c1[nH]c(-c2ccc(Cc3n[nH]c(=O)c4ccccc34)c(F)c2)nc2ccccc12
34.8	Cc1cccc2nc(-c3ccc(Cc4n[nH]c(=O)c5ccccc45)c(F)c3)[nH]c(=O)c12
52.3	O=c1[nH]c(-c2ccc(Cc3n[nH]c(=O)c4ccccc34)cc2)nc2ccc(Cl)cc12
74.7	O=c1[nH]c(-c2cccc(Cc3n[nH]c(=O)c4ccccc34)c2)nc2ccc(F)cc12
52.6	Cc1cccc2nc(-c3ccc(Cc4n[nH]c(=O)c5ccccc45)cc3)[nH]c(=O)c12
78	O=c1[nH]c(-c2cc(F)cc(Cc3n[nH]c(=O)c4ccccc34)c2)nc2ccc(Cl)cc12
78.4	COc1ccc2nc(-c3cccc(Cc4n[nH]c(=O)c5ccccc45)c3)[nH]c(=O)c2c1
